Assay in all cases: NCI-60 cell line screen, 48 h
For test [1], the system named is UO-31 renal.
In test [2] the test system is HS 578T breast.
Test [3] deals with HT29 colon.
In test [4] the test system is KM12 colon.
In test [5] the test system is HCC-2998 colon.

Among the data in PubChem BioAssay (NCI) are TGI values, retold here.

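Exposure lasted 48 hours, with cells grown in 96-well plates and compounds tested at five concentrations. TGI: concentration producing complete growth inhibition.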

As to `O=C1/C(=C\c2ccc([N+](=O)[O-])o2)SC2N=C(COc3ccc(Cl)cc3)NN12` (stereo unspecified), the TGI in test [1] is 23 µM; in test [2] it was greater than 100 µM; in test [3], 44.4 µM; in test [4] it was 28.4 µM.
`CC(C)CC1[C@@H](OCc2ccccc2)COS(=O)N1Cc1ccccc1` (stereo partly specified): the TGI in test [1] was greater than 100 µM; in test [2], 80 µM; in test [3], 40.2 µM; in test [4], 96.2 µM.
Consider `C[C@]12CCC(=O)C=C1CC[C@@H]1C2CC[C@]2(C)c3nn(-c4ccc(F)cc4)nc3CC12` (stereo partly specified), for which the TGI in test [1], in test [5], in test [2], in test [3] and in test [4] was greater than 100 µM each time.
For the molecule `Cc1cc(C)cc(C(=N)c2ccccc2Cc2cccc3ccccc23)c1`, the TGI in test [1] was greater than 100 µM; in test [2], 21.7 µM; in test [3], 24.5 µM; in test [4], 24 µM.
Regarding `CN1CCOC1(C)CO` (stereo unspecified), the TGI in test [1], in test [2], in test [3] and in test [4] was greater than 100 µM each time.
As to `CC(C)=CCS(=O)c1ccccc1NC1=CC(=O)CC(C)(C)C1` (stereo unspecified), the TGI in test [1], in test [5], in test [2], in test [3] and in test [4] was greater than 100 µM throughout.
Turning to `CCOC(=O)CC1c2ccc(O)cc2OC(=O)C1c1ccc([N+](=O)[O-])cc1` (stereo unspecified), the TGI in test [5] is 60.6 µM; in test [2], greater than 100 µM; in test [3], greater than 100 µM; in test [4], 97.8 µM.
Turning to `CSC1=C(SC)SC(=C2SC3=C(SC(=C4SCCS4)S3)S2)S1`, the TGI in test [1], in test [5], in test [2], in test [3] and in test [4] was greater than 100 µM in each case.
Regarding `CC1=C(C(N)=O)C(c2ccncc2)C(C#N)=C2SCC(=O)N12` (stereo unspecified), the TGI in test [1], in test [2], in test [3] and in test [4] was greater than 100 µM throughout.
Consider `Cc1cccc(/C=N/NC(=S)NCCc2ccccn2)n1`, for which the TGI in test [1] was 64.2 µM; in test [5], greater than 100 µM; in test [2], greater than 100 µM; in test [3] it was greater than 100 µM; in test [4] it was greater than 100 µM.
`Cc1cccc2c1[C@]13OC(C)[C@]4(C)CC5OC(=O)[C@@]1(C)[C@@H]5[C@]34C(=O)O2` (stereo partly specified): the TGI in test [1], in test [5], in test [2], in test [3] and in test [4] was greater than 100 µM throughout.
For `COc1ccc2c(c1)CC[C@@H]1[C@@H]2CC[C@]2(C)C(=O)/C(=C/c3ccc(OC)c(OC)c3)C[C@@H]12`, the TGI in test [1], in test [5] and in test [4] was greater than 100 µM in each case.
Turning to `COc1cc(/C=C2\C[C@H]3[C@@H]4CC=C5C[C@@H](O)CC[C@]5(C)[C@H]4CC[C@]3(C)C2=O)cc(OC)c1OC`, the TGI in test [1] was greater than 100 µM; in test [5], 98.1 µM; in test [2], greater than 100 µM; in test [3] it was 47.7 µM; in test [4] it was greater than 100 µM.
In the case of `O=C(C(=O)N1CCc2ccccc21)c1c[nH]c2ccccc12`, the TGI in test [1], in test [5], in test [2], in test [3] and in test [4] was greater than 10 µM in each case.
Turning to `CC1(C#N)CC(C)(C)C(/C=C2/CC(C)(C)C(/C=C3/OC(=N)CC3(C)C)=N2)=N1` (stereo unspecified), the TGI is 93.3 µM in test [5], 58.9 µM in test [2], greater than 100 µM in test [3] and 56.2 µM in test [4].
Consider `CC1=C(Br)C(Br)=C(C)S1=O`, for which the TGI is 39.3 µM in test [1]; 34.9 µM in test [5]; greater than 100 µM in test [2]; 45.4 µM in test [3]; 36.2 µM in test [4].
The corresponding values for `O=C(c1ccccc1)c1c(-c2ccccc2)[nH]n(-c2ccc([N+](=O)[O-])cc2)c(=O)c1=O` are greater than 100 µM, greater than 100 µM, greater than 100 µM, greater than 100 µM and greater than 100 µM.
The matching figures for `CCC1OC2C(CC=C(C)C)=C3OC(C)(O)C(C)(CC)C(OC(=O)c4ccccc4)C3=C3OC(=O)C=C1C32` (stereo unspecified): greater than 100 µM, 48.4 µM, greater than 100 µM, greater than 100 µM and greater than 100 µM.
Regarding `N#CSc1nc[nH]c1C(N)=O`, the TGI in test [1], in test [5], in test [2], in test [3] and in test [4] was greater than 100 µM throughout.
On to `COC(=O)C1=C(C)NC(C)=C(C(=O)OC)C1c1ccc(/[N+]([O-])=C/c2ccccc2)cc1`, for which the TGI in test [1], in test [5], in test [2], in test [3] and in test [4] was greater than 100 µM each time.
For the molecule `CC12CCC(C(=O)OC1=O)C2(C)C` (stereo unspecified), the TGI in test [1], in test [5], in test [2], in test [3] and in test [4] was greater than 100 µM each time.
As for `COC1=C(Br)[C@H](O)[C@@]2(C=C1Br)CC(C(=O)NCCCCCN=C(N)N)=NO2`, the TGI in test [1], in test [5], in test [2], in test [3] and in test [4] was greater than 10 µM throughout.
On to `CC1(C)OCC2OC3(c4nc(C#N)c(N)o4)OC(C)(C)OC3C2O1` (stereo unspecified), for which the TGI in test [1], in test [5], in test [2], in test [3] and in test [4] was greater than 100 µM each time.
For the molecule `COc1ccc2c(c1C)C(=O)C(O)(CC=C(C)C)O2` (stereo unspecified), the TGI in test [1], in test [5], in test [2], in test [3] and in test [4] was greater than 100 µM in each case.
